Laboratory results reported in patent publication US20250215029A1 (Recludix Pharma, Inc., priority 2022, published 2025).
Like-named read-outs stand apart in the source and are kept apart here.

Key:
pY641-STAT6 in PBMC = target: T1, pY641-STAT6 in PBMC (Homo sapiens, UniProt P42226); test: MSD-pSTAT-PBMC Assay (pSTAT6, IL-4 stimulated); format: cell-based; conditions: compound 3 hrs, then 1 ng/mL IL-4 for 10 min
T1 construct: Cryopreserved Peripheral Blood Mononuclear Cells (PBMC) are from AllCells; host or cells: cryopreserved PBMC
T1 sequence (P42226 1-847): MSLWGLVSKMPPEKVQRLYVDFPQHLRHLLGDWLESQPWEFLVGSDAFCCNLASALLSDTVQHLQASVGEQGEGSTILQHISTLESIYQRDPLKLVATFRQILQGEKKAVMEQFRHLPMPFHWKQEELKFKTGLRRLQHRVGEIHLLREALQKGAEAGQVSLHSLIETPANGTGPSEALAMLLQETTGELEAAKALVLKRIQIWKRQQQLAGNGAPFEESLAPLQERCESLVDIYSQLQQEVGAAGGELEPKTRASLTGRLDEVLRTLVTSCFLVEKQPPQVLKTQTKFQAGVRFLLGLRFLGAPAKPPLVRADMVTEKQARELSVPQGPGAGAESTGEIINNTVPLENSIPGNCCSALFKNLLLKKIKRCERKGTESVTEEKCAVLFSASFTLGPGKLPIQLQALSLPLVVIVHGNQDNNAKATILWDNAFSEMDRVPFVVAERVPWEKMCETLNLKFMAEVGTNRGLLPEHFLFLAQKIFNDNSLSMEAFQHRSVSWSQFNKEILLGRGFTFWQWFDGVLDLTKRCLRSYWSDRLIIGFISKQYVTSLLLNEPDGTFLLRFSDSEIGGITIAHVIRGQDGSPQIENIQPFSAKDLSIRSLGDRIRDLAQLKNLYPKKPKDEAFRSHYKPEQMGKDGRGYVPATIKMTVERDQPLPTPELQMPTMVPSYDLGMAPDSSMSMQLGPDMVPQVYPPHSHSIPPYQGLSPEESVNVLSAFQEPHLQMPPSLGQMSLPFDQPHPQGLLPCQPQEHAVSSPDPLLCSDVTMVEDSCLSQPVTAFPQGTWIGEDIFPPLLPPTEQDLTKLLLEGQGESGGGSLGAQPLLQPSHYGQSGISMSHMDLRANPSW
Outline: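 PBMC (human, cryopreserved, overnight recovery) + cpd 3 hrs → IL-6 10 ng/mL (STAT3) or IL-4 1 ng/mL (STAT6) ×10 min → lysis with protease/phosphatase inhibitors → MSD capture/phospho detection. IC50, variable slope, DMSO-normalized.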

pY705-STAT3 in PBMC = target: T2, pY705-STAT3 in PBMC (Homo sapiens, UniProt P40763); test: MSD-pSTAT-PBMC Assay (pSTAT3, IL-6 stimulated); format: cell-based; conditions: PBMC, compound 3 hrs, then 10 ng/mL IL-6 for 10 min
T2 construct: Cryopreserved Peripheral Blood Mononuclear Cells (PBMC) are from AllCells; host or cells: cryopreserved PBMC
Outline: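 Human PBMCs were pretreated with compound for 3 h, then stimulated with 10 ng/mL IL-6 for 10 min. Lysate pY705-STAT3 was measured by MSD sandwich immunoassay (anti-STAT3 capture) and corrected for unstimulated background. Signal was normalized to DMSO, and IC50 came from variable-slope regression.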

[1] = PBMC, Table 1114, read-out: pSTAT6
[2] = PBMC, Table 115, read-out: STAT6

T2 sequence (P40763 whole entry): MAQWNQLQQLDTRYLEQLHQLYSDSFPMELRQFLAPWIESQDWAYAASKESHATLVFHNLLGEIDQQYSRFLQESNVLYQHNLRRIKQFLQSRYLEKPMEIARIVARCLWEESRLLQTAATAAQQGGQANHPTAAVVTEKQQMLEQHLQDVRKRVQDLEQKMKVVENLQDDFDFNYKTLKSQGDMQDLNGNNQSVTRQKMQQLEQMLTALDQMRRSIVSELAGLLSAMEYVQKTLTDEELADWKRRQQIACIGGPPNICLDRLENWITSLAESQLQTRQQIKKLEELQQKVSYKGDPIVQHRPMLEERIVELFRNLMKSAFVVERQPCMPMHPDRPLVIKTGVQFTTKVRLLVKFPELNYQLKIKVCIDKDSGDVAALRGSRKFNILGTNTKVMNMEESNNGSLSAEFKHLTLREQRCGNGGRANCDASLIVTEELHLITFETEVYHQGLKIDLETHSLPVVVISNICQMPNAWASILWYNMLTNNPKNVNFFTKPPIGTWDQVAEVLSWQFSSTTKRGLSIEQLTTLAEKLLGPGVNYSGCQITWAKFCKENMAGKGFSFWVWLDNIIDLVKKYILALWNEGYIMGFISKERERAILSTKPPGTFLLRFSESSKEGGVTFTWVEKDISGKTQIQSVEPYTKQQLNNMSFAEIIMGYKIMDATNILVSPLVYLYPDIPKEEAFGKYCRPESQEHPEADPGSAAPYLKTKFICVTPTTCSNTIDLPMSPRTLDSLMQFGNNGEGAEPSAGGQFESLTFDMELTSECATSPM

Molecule	IC50 (pY641-STAT6 in PBMC; STAT6, PBMC, Table 115)	IC50 (pY705-STAT3 in PBMC; Table 115, read-out: STAT3)	IC50 (pY641-STAT6 in PBMC; [1])	IC50 (pY705-STAT3 in PBMC; Table 1114, read-out: pSTAT3)	IC50 (pY641-STAT6 in PBMC; [2])
CCCOC(=O)[C@H](C)NP(=O)(Oc1ccccc1)C(F)c1ccc2sc(C(=O)N[C@H]3CCCC[C@H]4CC[C@@H](C(=O)N5CCC(c6cccnc6)C5)N4C3=O)cc2c1 (stereo partly drawn) [Compound 320, propyl ((fluoro(2-(((3S,6S,10aS)-5-oxo-3-(3-(pyridin-3-yl)pyrrolidine-1-carbonyl)decahydropyrrolo[1,2-a]azocin-6-yl)carbamoyl)benzo [b]thiophen-5-yl)methyl)(phenoxy)phosphoryl)-L-alaninate]	100 to 1000 nM	< 100 nM			
S-(2-((((2- (((3S,6S,9aS)-3-(3-(3- cyanophenyl) azetidine-1-carbonyl)-5- oxooctahydro-1H- pyrrolo[1,2-a]azepin-6- yl)carbamoyl)benzo[b] thiophen-5-yl) difluoromethyl)(((3- methylbutanoyl)thio) methoxy)phosphoryl) oxy)ethyl) 3- methylbutane thioate [Compound 176]			1000 to 3000 nM	< 100 nM	
CC(C)(C)C(=O)SCCOP(=O)(OCCSC(=O)C(C)(C)C)C(F)(F)c1ccc2sc(C(=O)N[C@H]3CCCC[C@H]4CC[C@@H](C(=O)N5CC(c6c[nH]cn6)C5)N4C3=O)cc2c1 [Compound 182, S,S′-(((3S,6S,10aS)-3-(3-(1H-imidazol-4-yl)azetidine-1-carbonyl)-5-oxodecahydropyrrolo [1,2-a]azocin-6-yl)carbamoyl)benzo[b] thiophen-5-yl) difluoromethyl) phosphoryl)bis(oxy)) bis(ethane-2,1-diyl)) bis(2,2-dimethylpropanethioate)]			1000 to 3000 nM	< 100 nM	
CC(C)(C)C(=O)OCOP(=O)(OCOC(=O)C(C)(C)C)C(F)(F)c1ccc2sc(C(=O)N[C@@]3(C)CCCC[C@H]4CC[C@@H](C(=O)N5CC(C(=O)N6CCOCC6)C5)N4C3=O)cc2c1 [Compound 186, (((difluoro(2-(((3S,6S, 10aS)-6-methyl-3-(3-(morpholine-4-carbonyl)azetidine-1-carbonyl)-5-oxodeca-hydropyrrolo [1,2-a]azocin-6-yl)carbamoyl)benzo[b]thiophen-5-yl)methyl)phosphoryl)bis (oxy))bis (methylene) bis(2,2-dimethyl-propanoate)]			> 3000 nM	< 100 nM	
CC(C)(C)C(=O)OCOP(=O)(OCOC(=O)C(C)(C)C)C(F)(F)c1ccc2sc(C(=O)NC3CCCCC4CCCC(C(=O)N5CC(C#N)C(c6ccccc6)C5)N4C3=O)cc2c1 [Compound 169, ((((2-(((4S,7S,11aS)-4-((rel- trans)-3-cyano-4-phenylpyrrolidine-1-carbonyl)-6-oxodecahydro-2H-pyrido[1,2-a]azocin-7-yl)carbamoyl)benzo[b]thiophen-5-yl)difluoromethyl)phosphroyl)bis(oxy)) bis(methylene) bis(2,2-dimethylpropaneoate)]			< 100 nM	100 to 1000 nM	
CC(C)(C)C(=O)OCOP(=O)(OCOC(=O)C(C)(C)C)C(F)(F)c1ccc2sc(C(=O)N[C@H]3CCC[C@H]4CC[C@@H](C(=O)N5CC(c6ccccn6)C5)N4C3=O)cc2c1 [Compound 188, (((difluoro(2-(((3S,6S,9aS)-5-oxo-3-(3-(pyridin-2-yl)azetidine-1-carbonyl)octahydro-1H-pyrrolo[1,2-a]azepin-6-yl)carbamoyl)benzo[b]thiophen-5-yl)methyl)phosphoryl)bis (oxy))bis (methylene) bis(2,2-dimethyl-propanoate)]			100 to 1000 nM	< 100 nM	
CC(C)CC(=O)SCCOP(=O)(OCCSC(=O)CC(C)C)[C@@H](F)c1ccc2sc(C(=O)N[C@H]3CCCC[C@H]4CC[C@@H](C(=O)N5C[C@@H](C#N)[C@H](c6cc[nH]c(=O)c6)C5)N4C3=O)cc2c1 (single isomer, unassigned) [Compound 1090]		1000 to 3000 nM			100 to 1000 nM
CCCC(=O)SCCOP(=O)(OCCSC(=O)CCC)C(F)(F)c1ccc2sc(C(=O)N[C@H]3CCCC[C@H]4CC[C@@H](C(=O)N5C[C@@H](C#N)[C@H](c6ccccc6)C5)N4C3=O)cc2c1 (relative stereo) [Compound 126, S,S′-(((((2-(((3S,6S,10aS)-3-(rel-trans)-3-cyano-4-phenylpyrrolidine-1-carbonyl)-5-oxodecahydro-pyrrolo[1,2-a]azocin-6-yl)carbamoyl)benzo[b]thiophen-5-yl)difluoromethyl)phosphoryl)bis(oxy)) bis(ethane-2,1-diyl)) dibutanethioate]			< 100 nM	100 to 1000 nM	
CCCOC(=O)[C@H](C)NP(=O)(Oc1ccccc1)C(F)c1ccc2sc(C(=O)N[C@H]3CCC[C@H]4CC[C@@H](C(=O)N5CC(c6cccnc6)C5)N4C3=O)cc2c1 (stereo partly drawn) [Compound 415, propyl ((fluoro(2-(((3S,6S,9aS)-5-oxo-3-(3-(pyridin-3-yl)azetidine-1-carbonyl)octahydro-1H-pyrrolo[1,2-a]azepin-6-yl)carbamoyl)benzo [b]thiophen-5-yl)methyl)(phenoxy)phosphoryl)-L-alaninate]	1000 to 3000 nM	< 100 nM			
CCCC(=O)SCCOP(=O)(OCCSC(=O)CCC)C(F)(F)c1ccc2sc(C(=O)N[C@H]3CCCC[C@H]4CC[C@@H](C(=O)N5C[C@@H](C#N)[C@H](c6ccccc6)C5)N4C3=O)cc2c1 (single isomer, unassigned) [Compound 152, S,S′-(((((2-(((3S,6S,10aS)-3-((3S,4R or 3R,4S)-3-cyano-4-phenylpyrrolidine-1-carbonyl)-5-oxodecahydro-pyrrolo[1,2-a]azocin-6-yl)carbamoyl)benzo[b]thiophen-5-yl)difluoromethyl)phosphoryl)bis(oxy))bis(ethane-2,1-diyl)) dibutanethioate]			100 to 1000 nM	1000 to 3000 nM	
CCCC(=O)SCCOP(=O)(OCCSC(=O)CCC)C(F)(F)c1ccc2sc(C(=O)NC3CCCC4CCC(C(=O)N5CC(c6cccnc6)C5)N4C3=O)cc2c1 [Compound 179, S,S′-((((difluoro(2-(((3S,6S,9aS)-5-oxo-3-(3-(pyridin-3-yl)azetidine-1-carbonyl)octahydro-1H-pyrrolo[1,2-a]azepin-6-yl)carbamoyl)benzo[b]thiophen-5-yl)methyl)phosphoryl)bis(oxy))bis(ethane-2,1-diyl)) dibutanethioate]			1000 to 3000 nM	< 100 nM	
COCCC(=O)SCCOP(=O)(OCCSC(=O)CCOC)C(F)(F)c1ccc2sc(C(=O)N[C@H]3CCC[C@H]4CC[C@@H](C(=O)N5CC(c6cccnc6)C5)N4C3=O)cc2c1 [Compound 1106, S,S′-((((difluoro(2-(((3S,6S,9aS)-5-oxo-3-(3-(pyridin-3-yl)azetidine-1-carbonyl)octahydro-1H-pyrrolo[1,2-a]azepin-6-yl)carbamoyl)benzo [b]thiophen-5-yl)methyl)phosphoryl)bis(oxy))bis(ethane-2,1-diyl)) bis(3-methoxy-propanethioate)]		< 100 nM			100 to 1000 nM
COCC(=O)SCCOP(=O)(OCCSC(=O)COC)C(F)(F)c1ccc2sc(C(=O)N[C@H]3CCCC[C@H]4CC[C@@H](C(=O)N5C[C@@H](C#N)[C@H](c6cc[nH]c(=O)c6)C5)N4C3=O)cc2c1 (single isomer, unassigned) [Compound 1010]		1000 to 3000 nM			100 to 1000 nM
CCCOC(=O)[C@H](C)N[P@](=O)(Oc1ccccc1)[C@@H](F)c1ccc2sc(C(=O)N[C@H]3CCC[C@H]4CC[C@@H](C(=O)N5CC(c6cnccc6N(C)C)C5)N4C3=O)cc2c1 (single isomer, unassigned) [Compound 941]	1000 to 3000 nM	< 100 nM			
CC(C)(C)C(=O)OCOP(=O)(OCOC(=O)C(C)(C)C)C(F)(F)c1ccc2sc(C(=O)N[C@H]3CCCC[C@H]4CC[C@@H](C(=O)N5C[C@H](c6ccccc6)[C@@H](C#N)C5)N4C3=O)cc2c1 (relative stereo) [Compound 190, ((((2-(((3S,6S,10aS)-3-(rel- trans)-3-cyano-4-phenyl-pyrrolidine-1-carbonyl)-5-oxodecahydro-pyrrolo[1,2-a]azocin-6-yl)carbamoyl)benzo[b]thiophen-5-yl)difluoro-methyl)phos-phoryl)bis(oxy)) bis(methylene) bis(2,2-dimethyl-propanoate)]			< 100 nM	< 100 nM	
